Experiments:
Bacillus subtilis = assay: Agar diffusion antimicrobial test, Bacillus subtilis; type: cell-based; conditions: Gram+ve, modified Kirby–Bauer disk diffusion, 10 µg/mL
Experimental: (§1) The newly synthesized compounds 3–12 were tested for their preliminary antimicrobial activity against different microorganisms representing Gram-positive (Bacillus subtilis, Bacillus aureus and Staphylococcus aureus), Gram-negative bacteria (Escherichia coli), yeast (Candida albican) and fungi (Aspergillus niger).
(§2) The antimicrobial activities of the synthesized compounds were determined by the agar diffusion method as recommended by the national committee for clinical laboratory standards (NCCLS). The concentrations of the tested compounds (10 µg/mL) were used according to modified Kirby–Bauer’s disk diffusion method. The degree of inhibition is measured in comparison with that of chloramphinicol and fusidic acid taken as standards.

Bacillus aureus = assay: Agar diffusion antimicrobial test, Bacillus aureus; type: cell-based; conditions: Gram+ve, modified Kirby–Bauer disk diffusion, 10 µg/mL
Experimental: as §1, §2

Staphylococcus aureus = assay: Agar diffusion antimicrobial test, Staphylococcus aureus; type: cell-based; conditions: Gram+ve, modified Kirby–Bauer disk diffusion, 10 µg/mL
Experimental: as §1, §2

Escherichia coli = assay: Agar diffusion antimicrobial test, Escherichia coli; type: cell-based; conditions: Gram−ve, modified Kirby–Bauer disk diffusion, 10 µg/mL
Experimental: as §1, §2

Candida albicans = assay: Agar diffusion antimicrobial test, Candida albicans; type: cell-based; conditions: Yeast, modified Kirby–Bauer disk diffusion, 10 µg/mL
Experimental: as §1, §2

Aspergillus niger = assay: Agar diffusion antimicrobial test, Aspergillus niger; type: cell-based; conditions: Fungi, modified Kirby–Bauer disk diffusion, 10 µg/mL
Experimental: as §1, §2

[1] = test system: carrageenan-induced edema; assay: Carrageenan-induced edema (rat paw test); type: in vivo; conditions: one hour before carrageenan, male albino rats, eight animals per group, paws excised four hours after drug administration
Experimental: (§3) For the determination of the antiphlogistic potency of the synthesized compounds, two standard tests were realized at a dose level 2.5 and 5 mg/kg body weight of the rats, namely the protection against carrageenan-induced edema according to Winter et al. and the inhibition of plasma PGE2. The latter is known as a good confirming indicator for carrageenan-induced rat paw edema. […] For these compounds, a similar activity profile was realized for the inhibition of plasma PGE2.
(§4) Groups of adult male albino rats (150–180 g), each of eight animals were orally dosed with tested compounds at a dose level of 2.5–5 mg/kg one hour before carrageenan challenge. Foot paw edema was induced by subplantar injection of 0.05 cm^3 of a 1% suspension of carrageenan in saline into the plantar tissue of one hind paw. An equal volume of saline was injected to the other hand paw and served as control. Four hours after drug administration the animals were decapitated, blood was collected, and the paws were rapidly excised. The average weight of edema was examined for the treated as well as the control group and the percentage inhibition of weight of edema was also evaluated. Diclofenac potassium (5 mg/kg) was employed as standard reference against which the tested compounds were compared (Table 2).

plasma PGE2 = assay: Inhibition of plasma PGE2 (EIA) in carrageenan-challenged rats; type: in vivo, rat; conditions: rats n = 8, blood four hours after drug administration, PGE2 EIA kit
Experimental: as §3, §4
Heparinized blood samples were collected from rats (n = 8), plasma was separated by centrifugation at 12,000 g for 2 min at […], immediately frozen, and stored at […] until use. The design correlate EIA prostaglandin E2 (PGE2) kit (Aldrich, Steinheim, Germany) is a competitive immuno assay for the quantitative determination of PGE2 in biological fluids. The kit uses a monoclonal antibody to PGE2 to bind, in a competitive manner, the PGE2 in the sample after a simultaneous incubation at room temperature. The excess reagents were washed away and the substrate was added, after a short incubation time the enzyme reaction was stopped, and the yellow color generated was read on a microplate reader DYNATech, MR 5000 at 405 nm (Dynatech Industries Inc., McLean, VA, USA). The intensity of the bound yellow color is inversely proportional to the concentration of PGE2 in either standard or samples.

MCF7 = type: cell-based, human; conditions: MTT, 3 days, 37 °C; at least three experiments; read-out: IC50 against breast cell line MCF7
Experimental: (§5) The cytotoxicity of the newly synthesized compounds against cancer cell lines in vitro was performed with the MTT assay according to the Mosmann’s method. The MTT assay is based on the reduction of the soluble 3-(4,5-[…]-2-thiazolyl)-2,5-diphenyl-2H-tetrazolium bromide (MTT) into a blue-purple formazan product, mainly by mitochondrial reductase activity inside living cells. The cells used in cytotoxicity assay were cultured in RPMI 1640 medium supplemented with 10% fetal calf serum. Cells suspended in the medium (2 × 10^4 mL^−^1) were plated in 96-well culture plates and incubated at 37 °C in a 5% CO2 incubator. […] The cultured cells were mixed with 20 μL of MTT solution and incubated for 4 h at 37 °C. The supernatant was carefully removed from each well and 100 μL of DMSO were added to each well to dissolve the formazan crystals which were formed by the cellular reduction of MTT. After mixing with a mechanical plate mixer, the absorbance of each well was measured by a microplate reader using a test wavelength of 570 nm. The results were expressed as the IC50, which inducing a 50% inhibition of cell growth of treated cells when compared to the growth of control cells. Each experiment was performed at least three times. There was a good reproducibility between replicate wells with standard errors below 10%.

HS578T = type: cell-based; conditions: MTT, 3 days, 37 °C; at least three experiments; read-out: IC50 against breast cell line HS578T
Experimental: as §5

MDAMB231 = type: cell-based; conditions: MTT, 3 days, 37 °C; at least three experiments; read-out: IC50 against breast cell line MDAMB231
Experimental: as §5

MDAMB435 = type: cell-based; conditions: MTT, 3 days, 37 °C; at least three experiments; read-out: IC50 against breast cell line MDAMB435
Experimental: as §5

| Structure (SMILES) | Inhibition Zome, Bacillus subtilis (Bacillus subtilis) [cm] | Inhibition Zome, Bacillus aureus (Bacillus aureus) [cm] | Inhibition Zome, Staphylococcus aureus (Staphylococcus aureus) [cm] | Inhibition Zome, Escherichia coli (Escherichia coli) [cm] | Inhibition Zome, Candida albicans (Candida albicans) [cm] | Inhibition Zome, Aspergillus niger (Aspergillus niger) [cm] | % Protection against Edema ([1]; dose 2.5 mg/kg oral) [%] | % Protection against Edema ([1]; dose 5.0 mg/kg oral) [%] | % Inhibition of Plasma PGE2 (plasma PGE2; dose 2.5 mg/kg oral) [%] | % Inhibition of Plasma PGE2 (plasma PGE2; dose 5.0 mg/kg oral) [%] | IC50 (MCF7) [µM] | IC50 (HS578T) [µM] | IC50 (MDAMB231) [µM] | IC50 (MDAMB435) [µM] |
| --- | --- | --- | --- | --- | --- | --- | --- | --- | --- | --- | --- | --- | --- | --- |
| CC(C)C[C@H](NC(=O)c1cncc(C(=O)N[C@@H](CC(C)C)C(=O)NN2C(=O)c3ccccc3C2=O)c1)C(=O)NN1C(=O)c2ccccc2C1=O [Compound 7a] | 1.55 | 1.84 | 1.58 | 0.75 | 1.02 | 1.64 | 97.45 ± 0.054 | 98.86 ± 0.046 | 81.30 ± 0.044 | 82.48 ± 0.052 | – | – | – | – |
| C/C(=N\NC(=O)[C@H](CC(C)C)NC(=O)c1cncc(C(=O)N[C@@H](CC(C)C)C(=O)N/N=C(\C)c2ccc(Cl)cc2)c1)c1ccc(Cl)cc1 [Compound 9a] | 1.84 | 1.88 | 1.76 | 0.92 | 1.10 | 2.01 | 82.16 ± 0.076 | 93.16 ± 0.064 | 58.96 ± 0.024 | 74.58 ± 0.040 | – | – | – | – |
| COc1ccc(/C(C)=N/NC(=O)[C@H](CC(C)C)NC(=O)c2cncc(C(=O)N[C@@H](CC(C)C)C(=O)N/N=C(\C)c3ccc(OC)cc3)c2)cc1 [Compound 9b] | 1.60 | 1.74 | 1.72 | 0.75 | 1.00 | 1.88 | 79.34 ± 0.081 | 92.92 ± 0.090 | 57.90 ± 0.040 | 77.14 ± 0.052 | – | – | – | – |
| CC(C)C[C@H](NC(=O)c1cncc(C(=O)N[C@@H](CC(C)C)C(=O)N/N=C/c2ccc([N+](=O)[O-])cc2)c1)C(=O)N/N=C/c1ccc([N+](=O)[O-])cc1 [Compound 10d] | 1.85 | 2.00 | 1.92 | 0.90 | 0.96 | 2.00 | 81.00 ± 0.072 | 95.82 ± 0.062 | 63.14 ± 0.023 | 79.88 ± 0.031 | 0.00035 | 5.67 | 3.67 | 57.5 |
